For this test, the system named is P388 leukemia ip, CD2F1 mice, survival T/C. The experiment in a line: NCI In Vivo Anticancer Drug Screen. Data for tumor model P388 Leukemia (intraperitoneal) in CD2F1 (CDF1) mice. The settings on record: endpoint: median survival time, higher = longer survival. The method in brief:
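Mice carrying the transplanted tumor received test compound or vehicle. Survival was recorded in each group, and the value is the treated-group measurement divided by that of the vehicle-treated control group.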

Where [1] appears, read: dose: 50.0 mg/kg/injection, schedule: Q01DX009 (ip), vehicle: Klucel (hydroxypropylcellulose) (HPC).
The mark [2] stands for this setting: dose: 50.0 mg/kg/injection, schedule: Q01DX009 (ip), vehicle: saline with Tween-80.
Where [3] appears, read: dose: 100.0 mg/kg/injection, schedule: Q01DX009 (ip), vehicle: Klucel (hydroxypropylcellulose) (HPC).
Where [4] appears, read: dose: 100.0 mg/kg/injection, schedule: Q01DX009 (ip), vehicle: saline with Tween-80.
Setting [5] is: dose: 200.0 mg/kg/injection, schedule: Q01DX009 (ip), vehicle: Klucel (hydroxypropylcellulose) (HPC).
[6] abbreviates: dose: 200.0 mg/kg/injection, schedule: Q01DX009 (ip), vehicle: saline with Tween-80.
The mark [7] stands for this setting: dose: 400.0 mg/kg/injection, schedule: Q01DX009 (ip), vehicle: Klucel (hydroxypropylcellulose) (HPC).
Setting [8] is: dose: 50.0 mg/kg/injection, schedule: Q01DX005 (ip), vehicle: Klucel (hydroxypropylcellulose) (HPC).
[9] abbreviates: dose: 100.0 mg/kg/injection, schedule: Q01DX005 (ip), vehicle: Klucel (hydroxypropylcellulose) (HPC).
Where [10] appears, read: dose: 200.0 mg/kg/injection, schedule: Q01DX005 (ip), vehicle: Klucel (hydroxypropylcellulose) (HPC).
The mark [11] stands for this setting: dose: 50.0 mg/kg/injection, schedule: Q01DX005 (ip), vehicle: saline with Tween-80.
Where [12] appears, read: dose: 100.0 mg/kg/injection, schedule: Q01DX005 (ip), vehicle: saline with Tween-80.
Setting [13] is: dose: 200.0 mg/kg/injection, schedule: Q01DX005 (ip), vehicle: saline with Tween-80.
[14] abbreviates: dose: 60.0 mg/kg/injection, schedule: Q01DX005 (ip), vehicle: saline with Tween-80.
Where [15] appears, read: dose: 120.0 mg/kg/injection, schedule: Q01DX005 (ip), vehicle: saline with Tween-80.
The mark [16] stands for this setting: dose: 240.0 mg/kg/injection, schedule: Q01DX005 (ip), vehicle: saline with Tween-80.
The mark [17] stands for this setting: dose: 6.25 mg/kg/injection, schedule: Q04DX002 (ip), vehicle: saline with Tween-80.
Where [18] appears, read: dose: 12.5 mg/kg/injection, schedule: Q04DX002 (ip), vehicle: saline with Tween-80.

Values joined by “and” are separate entries in the source; they are usually repeats but may differ in a detail not shown here. Equal values may be shown once. Inconclusive results and toxic doses are left out.

For the compound `Cc1ccc([N+](=O)[O-])c2ccccc12`, the T/C by setting is: under setting [1], 113 % of control and 97 % of control; under setting [2], 109 % of control; under setting [3], 100 % of control and 98 % of control; under setting [4], 100 % of control; under setting [5], 103 % of control and 120 % of control; under setting [6], 96 % of control. In addition, the T/C under setting [7] is 86 % of control and 97 % of control.

As to `Cc1cc(NCCCNCCCNc2cc(C)nc3cc(N)ccc23)c2ccc(N)cc2n1`, under “dose: 12.5 mg/kg/injection, schedule: Q01DX009 (ip), vehicle: other”, the T/C was 160 % of control.

For `CCOc1cc2c(cc1C(C)c1ccc(OC)c(OC)c1)OCO2` (stereo unspecified), the T/C runs as follows: under setting [8], 100 % of control; under setting [9], 105 % of control; under setting [10], 107 % of control.

For the compound `CCCCCn1c(CN2CCCCC2)nc2c1-c1ccccc1C(=O)C2=O`, the T/C is 100 % of control (dose: 50.0 mg/kg/injection, schedule: Q01DX001 (ip), vehicle: saline with Tween-80); 100 % of control (dose: 100.0 mg/kg/injection, schedule: Q01DX001 (ip), vehicle: saline with Tween-80); 100 % of control (dose: 200.0 mg/kg/injection, schedule: Q01DX001 (ip), vehicle: saline with Tween-80).

For the compound `O=C(N=Nc1ccccc1)Nc1ccc(Br)cc1`, the T/C is 101 % of control under setting [11], 101 % of control under setting [12] and 104 % of control under setting [13].

With `CC1(C(N)=O)CO1` (stereo unspecified), the T/C is 103 % of control (dose: 100.0 mg/kg/injection, schedule: Q04DX003 (ip), vehicle: saline); 100 % of control (dose: 200.0 mg/kg/injection, schedule: Q04DX003 (ip), vehicle: saline); 100 % of control (dose: 400.0 mg/kg/injection, schedule: Q04DX003 (ip), vehicle: saline).

As for `COc1cc(C=Nc2cc(Cl)c(Cl)c(Cl)c2)ccc1N(CCCl)CCCl`, the T/C (dose: 0.79 mg/kg/injection, schedule: Q01DX009 (ip), vehicle: Klucel (hydroxypropylcellulose) (HPC)) is 105 % of control.

Take `c1ccc2c(c1)CN1Cc3ccccc3C2C1`: the T/C runs as follows: under setting [2], 99 % of control; under setting [4], 93 % of control; under setting [6], 91 % of control.

Consider `COc1ccc(-c2cncnc2N)cc1OC`, for which the T/C under setting [1] is 95 % of control, the T/C under setting [3] was 97 % of control and the T/C under setting [5] was 89 % of control.

Regarding `C1=C[N-]c2c3c(ccc2=C1)=CC=C[N-]3.C1=C[N-]c2c3c(ccc2=C1)=CC=C[N-]3.O=[N+]([O-])O.[Cu+]`, the T/C by setting is: (dose: 1.56 mg/kg/injection, schedule: Q04DX002 (ip), vehicle: saline) 100 % of control; (dose: 3.12 mg/kg/injection, schedule: Q04DX002 (ip), vehicle: saline) 99 % of control and 98 % of control; (dose: 6.25 mg/kg/injection, schedule: Q04DX002 (ip), vehicle: saline) 99 % of control and 110 % of control and 98 % of control; (dose: 12.5 mg/kg/injection, schedule: Q04DX002 (ip), vehicle: saline) 120 % of control and 97 % of control; (dose: 25.0 mg/kg/injection, schedule: Q04DX002 (ip), vehicle: saline) 111 % of control and 97 % of control.

Turning to `NNC(=O)CNC(=O)Nc1n[nH]c(=S)s1`, the T/C was 101 % of control under setting [2] and 95 % of control under setting [4].

As for `c1ccc(C2SC(c3ccccc3)SC(c3ccccc3)S2)cc1` (stereo unspecified), the T/C is 109 % of control under setting [1], 107 % of control under setting [3], 108 % of control under setting [5] and 106 % of control under setting [7].

Consider `COC(=O)C1=Cc2c(n3ncnc3n(-c3ccccc3)c2=O)N(S(=O)(=O)c2ccc(C)cc2)CC1`, for which the T/C reads like this: under setting [14], 93 % of control; under setting [15], 95 % of control; under setting [16], 97 % of control.

With `C1CCCc2c(-c3n[nH]c4c3CCCCCC4)n[nH]c2CC1`, the T/C reads like this: under setting [14], 100 % of control; under setting [15], 95 % of control; under setting [16], 100 % of control.

On to `CCc1nc(N)nc(N)c1-c1ccc2nnn(O)c2c1`, for which the T/C is 98 % of control under setting [8], 96 % of control under setting [9] and 105 % of control under setting [10].

On to `CCOc1cc2c(cc1C(C)(C)c1ccccc1)OCO2`, for which the T/C runs as follows: under setting [11], 99 % of control; under setting [12], 92 % of control; under setting [13], 96 % of control.

For `O=C(Nc1cccc(Cl)c1)Oc1cccnc1`, the T/C under setting [14] is 99 % of control, the T/C under setting [15] was 88 % of control and the T/C under setting [16] was 89 % of control.

In the case of `[Be]=[Se]`, the T/C is 97 % of control (dose: 7.5 mg/kg/injection, schedule: Q01DX005 (ip), vehicle: other); 103 % of control and 108 % of control (dose: 15.0 mg/kg/injection, schedule: Q01DX005 (ip), vehicle: other).

Consider `CCC(/C=C/c1ccccc1)=N\Nc1ccc(Cl)c(Cl)c1`, for which the T/C under setting [11] was 104 % of control, the T/C under setting [12] is 96 % of control and the T/C under setting [13] was 91 % of control.

For `Cc1n[nH]c(=O)[nH]c1=O`, the T/C is 100 % of control (dose: 100.0 mg/kg/injection, schedule: Q04DX003 (ip), vehicle: Klucel (hydroxypropylcellulose) (HPC)); 100 % of control (dose: 200.0 mg/kg/injection, schedule: Q04DX003 (ip), vehicle: Klucel (hydroxypropylcellulose) (HPC)); 90 % of control (dose: 400.0 mg/kg/injection, schedule: Q04DX003 (ip), vehicle: Klucel (hydroxypropylcellulose) (HPC)).

As for `O=C1C=C2C=CC3CC2(O1)C1CCCCN31` (stereo unspecified), the T/C reads like this: under setting [17], 113 % of control; (dose: 10.0 mg/kg/injection, schedule: Q01DX010 (ip), vehicle: saline) 90 % of control; under setting [18], 106 % of control; (dose: 20.0 mg/kg/injection, schedule: Q01DX010 (ip), vehicle: saline) 90 % of control; (dose: 25.0 mg/kg/injection, schedule: Q01DX010 (ip), vehicle: saline) 90 % of control and 110 % of control; (dose: 25.0 mg/kg/injection, schedule: Q04DX002 (ip), vehicle: saline with Tween-80) 106 % of control. Further, the T/C is, setting by setting: (dose: 50.0 mg/kg/injection, schedule: Q01DX010 (ip), vehicle: saline) 100 % of control and 110 % of control; (dose: 100.0 mg/kg/injection, schedule: Q01DX010 (ip), vehicle: saline) 100 % of control and 120 % of control.

Regarding `COc1ccc(C2(c3ccc(OC)cc3)N=C(n3nc(C)cc3C)NC2=O)cc1`, the T/C runs as follows: (dose: 50.0 mg/kg/injection, schedule: Q04DX002 (ip), vehicle: saline with Tween-80) 94 % of control; (dose: 100.0 mg/kg/injection, schedule: Q04DX002 (ip), vehicle: saline with Tween-80) 98 % of control; (dose: 200.0 mg/kg/injection, schedule: Q04DX002 (ip), vehicle: saline with Tween-80) 94 % of control.

Take `Clc1c2ccccc2[se][n+]1Cc1ccccc1`: the T/C was 104 % of control and 108 % of control and 111 % of control (dose: 12.5 mg/kg/injection, schedule: Q01DX009 (ip), vehicle: Klucel (hydroxypropylcellulose) (HPC)); 105 % of control and 106 % of control and 112 % of control (dose: 25.0 mg/kg/injection, schedule: Q01DX009 (ip), vehicle: Klucel (hydroxypropylcellulose) (HPC)); 105 % of control and 107 % of control and 121 % of control under setting [1]; 106 % of control and 110 % of control under setting [3].

Take `C/C(CC(c1ccccc1)N1CCc2ccccc2C1)=N/O` (stereo unspecified): the T/C is, setting by setting: under setting [4], 100 % of control; under setting [6], 100 % of control; (dose: 400.0 mg/kg/injection, schedule: Q01DX009 (ip), vehicle: saline with Tween-80) 100 % of control.

As for `N#CC1OC1c1ccccn1` (stereo unspecified), the T/C (dose: 6.25 mg/kg/injection, schedule: Q01DX005 (ip), vehicle: saline + Tween-80 + alcohol) was 98 % of control and the T/C (dose: 12.5 mg/kg/injection, schedule: Q01DX005 (ip), vehicle: saline + Tween-80 + alcohol) was 98 % of control.

With `CCCCCCCCCCCCCCCC[N+](C)(CCO)Cc1ccccc1` (stereo unspecified), the T/C under setting [17] was 112 % of control and the T/C under setting [18] was 116 % of control.

Regarding `CN(C)c1ccc(NC(=S)Nc2ccccc2C(F)(F)F)cc1`, the T/C runs as follows: under setting [1], 100 % of control; under setting [3], 100 % of control; under setting [5], 96 % of control.

Source of the values: PubChem BioAssay AID330 (DTP/NCI, 2004).
